Tests used:
NAMECs [1] = assay: Boyden chamber migration of NAMECs; type: cell-based, human; conditions: GW pre-treatment, 4 days
Method: FIG. 3 includes a set of images and two graphs. (A) is a set of bright-field images of NAMECs treated with vehicle, GW627368X, Dynasore (1 μM), or GW627368X plus Dynasore (0.5, 1, 1.5 μM) for 4 days. Scale bar, 100 μm. (B) is a graph showing the percentage of NAMECs treated with vehicle, GW627368X, Dynasore (1 μM), or GW627368X plus Dynasore (0.75 and 1 μM) that were resistant to 0.05% trypsin. Data are means±SEM, (n=3). ***P≤0.001. (C) is a graph showing Boyden chamber migration of NAMECs treated with vehicle (Crl), GW627368X, Dynasore (1 μM), or GW627368X plus Dynasore (0.5, 0.75, 1 μM) for 4 days. Data are means±SEM (n=3). **P≤0.005. ***P≤0.001.

NAMECs [2] = assay: RT2 Profiler PCR arrays of signaling pathway target genes; type: cell-based, human; conditions: 48-hour treatment
Method: The percentages of the target genes which, relative to NAMEC control cells, were inhibited, unchanged, or activated in GW627368X-treated NAMECs are presented in the plot.
To evaluate whether there is selective release of components of alternative signaling pathways, the activation and suppression of signaling pathways in GW-treated NAMECs were analyzed using RT2 Profiler PCR arrays. […] The decrease of p-Akt in GW-treated NAMECs and the enrichment of p-Akt in GW induced exosomes was reflected in inactivation of PI3K/Akt-signaling. Thus, EP4 antagonists are likely to interfere with the Akt-dependent signaling pathway by decreasing cellular p-Akt via exosome release.

[3] = test system: mesenchymal stem cells (MSCs); assay: Osteogenic, adipogenic and neural differentiation of MSCs; type: cell-based; conditions: GW-treated MSCs
Method: (A) and (B) show osteogenic differentiation of MSCs and EP4 antagonist GW-treated MSCs. MSCs were cultured in osteogenic differentiation medium and then stained with Alizarin Red S. Osteogenic differentiation was quantified by measuring the optical density (OD) of Alizarin Red S staining. […] MSCs were cultured in adipogenic differentiation medium. […] MSCs were cultured in neural differentiation medium for 7 or 14 days and then analyzed for the expression of neuronal marker tublin β3 and NeuN using western blotting.
GW-treated MSCs were cultured in osteogenic differentiation medium, adipogenic differentiation medium and neuron differentiation medium, respectively.

NAMEC-R cells = assay: NTA of EV release from Ras-transformed NAMEC-R cells; type: cell-based; conditions: CM-P4, 4 days; GW 1 μg/ml; SQ 120 and 240 nM
Method: Vesicles in the P4 fractions were counted using NTA. Data are means±SEM (n=6). ***P≤0.001; (B) The Alix, TSG101, CD63, CD81 and GAPDH exosome markers were measured in the CM-P4 fractions of NAMEC-R cells treated with vehicle (Crl), GW627368X (GW, 1 μg/ml), SQ 29,548 (SQ120/SQ240; 120 nM and 240 nM); (C) The mesenchymal marker N-cadherin, CSC markers and exosome markers were analyzed in the conditioned medium P4 fraction derived from equal numbers of vehicle-treated NAMEC-R cells (Crl), GW-treated NAMEC-R cells (GW, 1 μg/ml GW627368X for 4 days) and SQ 29,548-treated NAMEC-R cells (SQ120/SQ240; 120 nM and 240 nM for 4 days). The longer GAPDH(L) and CD81(L) exposures show the low, but detectable, presence of GAPDH and CD81 in the conditioned medium P4 fraction of vehicle-treated NAMEC-R cells.
We further investigated whether EP4 antagonism and TP receptor antagonism (as GW has partial affinity to the human TP receptor) affected EV release from transformed mammary epithelial stem cells. Four-day conditioned media of vehicle, GW-, or SQ (a TP antagonist)-treated Ras-transformed NAMEC mammary stem cells (NAMEC-R) were collected and subjected to differential ultracentrifugation to isolate EVs released by the cells. The numbers of vesicles in CM-P4 fractions were determined using NTA (FIG. 20, A). EP4 antagonism elicited release of ˜5000 vesicles per NAMEC-R cell. […]

MDA-MB-231 cells = assay: NTA and EV protein of CM-P4 fractions of MDA-MB-231 cells; type: cell-based, human
Text: (A) Quantification of EV/exosome release, shown as the number of particles in the CM-P4 fractions released per cell, from MCF-7 and MDA-MB-231 breast cancer cells treated with vehicle or with the indicated concentrations of GW627368X. Particles in the P4 fractions were counted using nanoparticle tracking analysis. Data are means±SEM (n=10). *P≤0.05, ***P≤0.001. (B) Quantification of the total EV protein released from MCF-7 and MDA-MB-231 cells treated with vehicle or with the indicated concentrations of GW627368X. The amounts (m) of protein present per cell in the conditioned medium P4 fractions are presented as means±SEM (n=3). *P≤0.05; (C) Protein levels in the P4 EV/exosome fractions and cell lysates, analyzed by Western blot. Culture media and cell lysates were collected from the same numbers of MCF-7 and MDA-MB-231 cells treated with vehicle or with GW627368X (GW), at the indicated concentrations, for 4 days. The P4 fractions of the culture media, containing EVs, were isolated. […]
We next examined whether blocking EP4-mediated signaling with an EP4 antagonist can elicit EV-mediated removal of CSC proteins (e.g., mesenchymal markers and stem cell markers) in the human breast carcinoma MCF-7 and MDA-MB-231 cell lines. P4 fractions from the conditioned media (CM-P4) of GW-treated MCF-7 and MDA-MB-231 cells were analyzed using NTA (FIG. 21, A). […]

With `CCOc1c2c(c(OCC)c3ccccc13)C(=O)N(c1ccc(CC(=O)NS(=O)(=O)c3ccccc3)cc1)C2` [GW627368X] the “decrease of number of migrating cells” value (NAMECs [1]) was roughly 60%, the “signaling pathways most inhibited” value (NAMECs [2]) was “PI3K/Akt, TGF-β, Wnt and androgen pathways” and the “abilities to differentiate into osteoblasts, adipocytes or nerve cells vs non-treated MSCs” value [3] was “much lowered”. For the same molecule, the “vesicles released per cell” value (NAMEC-R cells) was roughly 5000 vesicles per cell, the “amount of protein per cell in the EV/exosome fraction” value (MDA-MB-231 cells; GW-treated MDA-MB-231) was 10 fold and the “numbers of EVs released” value (MDA-MB-231 cells; increasing concentrations of GW) was “modestly increased”.
